Reference: paper PMC9145144, “Virtual Screening and Hit Selection of Natural Compounds as Acetylcholinesterase Inhibitors” (Molecules, 2022)
In brackets after ≈: the same amount, converted by molar mass. Several values for one entry are separate records, joined by “and”; a condition that tells them apart may be missing. Equal values may be shown once. Entries after “also recorded” stand apart in the source; their conditions may differ. Read-outs that look alike come from different tables or passages of the source.

How the values were obtained:
[1] = set-up: method as in doi:10.1016/j.phytol.2015.03.012; details: cited from earlier work
[2] = biological target: acetylcholinesterase from Electrophorus electricus (Electrophorus electricus, UniProt O42275); experiment: biochemical; type: biochemical; details: for IC50: triplicate, means ± SD, na = not active
Sequence of acetylcholinesterase from Electrophorus electricus (O42275 24-633): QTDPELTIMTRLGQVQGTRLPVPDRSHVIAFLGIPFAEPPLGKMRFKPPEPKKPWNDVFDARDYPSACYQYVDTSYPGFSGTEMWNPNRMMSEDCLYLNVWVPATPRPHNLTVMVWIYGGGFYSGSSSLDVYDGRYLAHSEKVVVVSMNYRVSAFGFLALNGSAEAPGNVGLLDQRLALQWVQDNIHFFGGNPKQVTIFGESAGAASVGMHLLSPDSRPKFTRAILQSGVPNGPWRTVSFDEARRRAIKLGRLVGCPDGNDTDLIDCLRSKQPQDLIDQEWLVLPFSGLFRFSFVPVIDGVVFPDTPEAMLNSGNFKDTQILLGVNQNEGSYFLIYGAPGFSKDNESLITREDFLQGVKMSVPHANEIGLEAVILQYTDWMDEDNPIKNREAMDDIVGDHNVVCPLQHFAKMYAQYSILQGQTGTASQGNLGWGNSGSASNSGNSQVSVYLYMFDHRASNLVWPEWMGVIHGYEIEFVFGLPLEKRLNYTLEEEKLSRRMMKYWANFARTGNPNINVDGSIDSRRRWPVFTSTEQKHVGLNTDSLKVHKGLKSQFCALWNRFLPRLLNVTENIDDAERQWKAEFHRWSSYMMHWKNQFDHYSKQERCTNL

[3] = ABTS radical scavenging activity; details: for ABTS (%) radical scavenging activity: absorbance at 734 nm after 7 min, triplicate, means ± SD, BHT 1 mM in MeOH, na = not active; for antioxidant activity (in words): ABTS radical scavenging
Method: […] (ABTS), potassium persulphate, and butylhydroxy toluol (BHT) were purchased from Sigma-Aldrich. For ABTS assay, the procedure followed the method of Grochowski et al. with some modifications. The stock solutions included 7 mM ABTS solution and 2.4 mM potassium persulphate solution. The working solution was then prepared by mixing the two stock solutions in equal quantities and allowing them to react for 14 h at room temperature in the dark. […] A fresh ABTS solution was prepared for each assay. […] of each com-pound (125 μL) was allowed to react with 1850 μL of the ABTS solution, and the absorbance was taken at 734 nm after 7 min. The control contains 125 μL methanol and 1850 μL of the ABTS solution. All determinations were performed in triplicate (n = 3). The results were expressed as % ABTS activity, using the following equation: % ABTS radical scavenging activity = ((Acontrol − Asample)/Acontrol) × 100, where Acontrol is the absorbance of the control, while Asample is the absorbance of the sample. Butylhydroxytoluene (BHT) (1 mM in MeOH) was used as a positive control.

NMDA receptor = NMDA receptor antagonists; cited from earlier work
BChE = details: cited from earlier work
AChE = details: cited from earlier work
[4] = Ellman's method, read-out: IC50

| Compound | AChE inhibitory activity (in words) ([2]; Ellman's method) | IC50 [2, 4] | ABTS (%) radical scavenging activity [3] | further results |
| --- | --- | --- | --- | --- |
| O=C1O[C@H]([C@@H](O)CO)C(O)=C1O [ascorbic acid] | – | – | – | IC50 scavenging activity in the ABTS model [1]: 105.90 µg/mL (≈ 601 µM) |
| Cc1ccc(NC(=O)C[C@H]2NCCc3c([nH]c4ccccc34)C2=O)cc1 [Compound 21, N-(4-methylphenyl)-2-{5-oxo-1H,2H,3H,4H,5H,6H-azepino [4,5-b]indol-4-yl} acetamide] | micro- to low millimolar range | 1000 to 2000 µM and 1200 µM | 34.68% and 34.68 ± 1.27% | – |
| O=C(/C=C/c1ccccc1)N1C[C@@H]2C[C@H](C1)c1cccc(=O)n1C2 [Compound 22, (1S,9R)-11-[(2E)-3-phenylprop-2-enoyl]-7,11-diazatricyc lotrideca-2,4-dien-6-one] | micromolar range; also recorded: micro- to low millimolar range | – | – | IC50 ([2]; IC50, Ellman's method): 390 ± 160 µM |
| CC(=O)Nc1ccc(N[C@@H]2OC(=O)c3c2c2ccccc2n3C)cc1 [Compound 16, (R)-N-(4-((4-methyl-3-oxo-3,4-dihydro-1H-furo [3,4-b]indol-1-yl)amino)phenyl)acetamide] | no AChE activity | – | 95.82% and 95.82 ± 0.21% | antioxidant activity (in words) [3]: higher than that of the positive control |
| O=C(Cn1ccc2ccc(F)cc21)NC[C@@H]1CCCN2CCCC[C@H]12 [Compound 9, N-{[(1S,9aR)-octahydro-1H-quinolizin-1-yl]methyl}-2-(6-fluoro-1H-indol-1-yl)acetamide] | micro- to low millimolar range | 1000 to 2000 µM and 1800 µM | 6.43% and 6.43 ± 0.85% | – |
| C=CCN1C(=O)C2(NCCc3c2[nH]c2ccc(C)cc32)c2ccccc21 (centres unmarked) [Compound 29, 6′-methyl-1-(prop-2-en-1-yl)-1,2,2′,3′,4′,9′-hexahydrospiro[indole-3,1′-pyrido [3,4-b]indol]-2-one] | micro- to low millimolar range | > 5000 µM and 5700 µM | 70.55% and 80.94% and 80.94 ± 0.94% | antioxidant activity (in words) [3]: high antioxidant activity |
| Ibogaine | – | – | – | Ki (NMDA receptor): 1.1 µM |
| O=C1C2CCCN2C(=O)c2ccccc2N1CCc1ccccc1 (centres unmarked) [Compound 17] | – | > 10000 µM | – | – |
| CC[C@H]1C[C@@H]2CN3CCc4c([nH]c5ccccc45)[C@](C(=O)OC)(C2)[C@H]13 [coronaridine] | – | – | – | Ki (NMDA receptor): 6.2 µM |
| O=c1cccc2n1C[C@@H]1CNC[C@H]2C1 [Cytisine] | – | – | – | inhibition of BChE (in words) (BChE): does not inhibit; inhibition of AChE (in words) (AChE): does not inhibit |
| Cc1cc(C(C)(C)C)c(O)c(C(C)(C)C)c1 [BHT, butylhydroxytoluene, reference compound] | – | – | 92.38% and 92.38 ± 0.21% | – |
| CC1CCc2c([nH]c3ccccc23)C2(N1)C(=O)Nc1ccccc12 (centres unmarked) [Compound 28, 3-methyl-1′,2′,3,4,5,10-hexahydro-2H-spiro[azepino [3,4-b]indole-1,3′-indol]-2′-one] | micromolar range; also recorded: micro- to low millimolar range | 620 ± 140 µM | 80.94% and 70.55 ± 0.85% | antioxidant activity (in words) [3]: high antioxidant activity |
